{"source": "patent US20110286998A1", "about": "“METHODS FOR TREATING AND PREVENTING CANCERS THAT EXPRESS THE HYPOTHALAMIC-PITUITARY-GONADAL AXIS OF HORMONES AND RECEPTORS” (Voyager Pharmaceutical Corporation, priority 2001, published 2011)", "key": {"cancer cell lines": {"tested_on": "cancer cell lines", "format": "cell-based", "method": "Cell growth assays were performed as described below. CaOV3 (ATCC HTB-75) cells were plated in Dulbecco's modified Eagle's medium with 4 mM L-glutamine, 1.5 g/L sodium bicarbonate, 0.1 mM non-essential amino acids, and 10% fetal bovine serum. H358 (ATCC CRL-5807) cells were plated in RPMI 1640 medium with 2 mM L-glutamine adjusted to contain 1.5 g/L sodium bicarbonate, 4.5 g/L glucose, 10 mM HEPES, 1.0 mM sodium pyruvate and 10% fetal bovine serum. H838 (ATCC CRL-5844) cells were plated in RPMI 1640 medium with 1.5 g/L sodium bicarbonate, 4.5 g/L glucose, 10 mM HEPES, 1.0 mM sodium pyruvate, 10 U/ml insulin and 10% fetal bovine serum. […]\nFor cell growth assays in a 96 well format, different numbers of cells were plated, depending on the cell line (about 2000 cells/well for CaOV3, about 250 cells/well for 786-O, about 500 cells/well for H838 and H358, about 5000 cells/well for T47D and […], about 1000 cells/well for HPAC, ACHN, HT-29, MCF-7 and about 300,000 cells/well for MV4-11). […] The number of cells in each group was measured by incubating cells with WST-8 (2-(2-methoxy-4-nitrophenyl)-3-(4-nitrophenyl)-5-(2,4-disulfophenyl)-2H-tetrazolium, monosodium salt) which produces a water soluble formazan dye that was detected by measuring optical density (at 450 nm) using a μQuant™ Universal Microplate Spectrophotometer (Bio-Tek® Instruments, Inc., Winooski, Vt.)."}, "[1]": {"details": "both, dog, in vivo, sc, 34 mg", "protocol": "FIG. 16 presents results of a pharmacokinetic study in which male and female dogs were either injected intramuscularly with a leuprolide depot formulation or implanted subcutaneously with a leuprolide implant formulation.\nSix dogs of each sex were dosed with 60 mg of Lupron Depot® by injection (males—X, females—▴) on day 1. Six dogs of each sex were dosed with single subcutaneous doses (males—▪, females—♦) of 3 DURIN™-Leuprolide 11.3 mg implants (total dose 34 mg) on day 1 and again on day 64. Serum leuprolide levels were determined and plotted against time out to 200 days."}, "testosterone": {"tested_on": "testosterone", "details": "in vivo; cited from earlier work"}, "[2]": {"tested_on": "pituitary secretion of LH and FSH", "details": "cited from earlier work"}}}
{"molecule": "CCNC(=O)[C@@H]1CCCN1C(=O)[C@H](CCCNC(=N)N)NC(=O)[C@H](CC(C)C)NC(=O)[C@@H](CC(C)C)NC(=O)[C@H](Cc1ccc(O)cc1)NC(=O)[C@H](CO)NC(=O)[C@H](Cc1c[nH]c2ccccc12)NC(=O)[C@H](Cc1c[nH]cn1)NC(=O)[C@@H]1CCC(=O)N1", "note": "[leuprolide acetate]", "values": [{"measurement": "effect on growth of cancer cell lines", "setting": "cancer cell lines", "result": "slows or inhibits growth in a dose dependent manner"}, {"measurement": "inhibition rates of cancer cell growth", "setting": "cancer cell lines; highest dose of leuprolide used in the studies", "result": "10-40%"}, {"measurement": "sustained serum levels of leuprolide acetate", "setting": "[1]", "result": "5.0 to 8.0", "unit": "ng/mL"}, {"measurement": "serum concentrations required for testosterone suppression", "setting": "testosterone", "result": "less than 1 ng/ml"}, {"measurement": "pituitary secretion of LH and FSH", "setting": "[2]; for several days after initial administration", "result": "increase"}, {"measurement": "LH and FSH secretion", "setting": "[2]; thereafter, pituitary GnRH receptors down-regulated", "result": "significant decrease"}]}
